Patent publication US20050197350A1, “Novel quinoline, tetrahydroquinazoline, and pyrimidine derivatives and methods of treatment related to the use thereof” (TAISHO PHARMACEUTICAL CO., LTD., priority 2003, published 2005)

Tested on: MCH receptors
Experiment: MCH receptor activity class (method not given)
[1] = activity class per percent of control at 10^-7 M or IC50
[2] = class 1-3 by percent of control at 10^-7 M or IC50
[3] = class by percent of control at 10^-7 M or IC50
[4] = MCH receptor, class by percent of control at 10^-7 M or IC50
[5] = class by percent of control at 10^−7 M or IC50
[6] = activity class 1-3: percent of control at 10^-7 M or IC50

## COc1cc(Br)cc(CNC[C@H]2CC[C@@H](Nc3cc(N(C)C)c4ccccc4n3)CC2)c1O [compound 1129]
[1]
  class: 2 (Class 2: The value of percent of control at 10^−7 M was from 40% to 60% or the value of IC′50 was from 50 nM to 200 nM.)

## CCOc1ccccc1C(=O)NC[C@H]1CC[C@@H](Nc2nccc(N(C)C)n2)CC1 [compound 417]
[2]
  class: 3 (Class 3 The value of percent of control at 10^−7 M was more than 60% or the value of IC50 was more than 200 nM.)

## CN(C)c1ccnc(N[C@H]2CC[C@@H](NC(=O)CCC3CCCCC3)CC2)n1 [compound 834]
[3]
  class: 3 (Class 3 The value of percent of control at 10^−7 M was more than 60% or the value of IC50 was more than 200 nM.)

## Cc1cc(C(=O)N[C@H]2CC[C@@H](Nc3cc(N(C)C)c4ccccc4n3)CC2)c(C)o1 [compound 71, N-(cis-4-{[4-(dimethylamino)quinolin-2-yl]amino}cyclohexyl)-2,5-dimethyl-3-furamide]
[4]
  class: 1 (Class 1: The value of percent of control at 10^−7 M was less than 40% or the value of IC50 was less than 50 nM.)

## CN(C)c1nc(N[C@H]2CC[C@@H](CNC(=O)Nc3cc(F)cc(F)c3)CC2)nc2c1CCCC2 [compound 2495]
[3]
  class: 3 (Class 3 The value of percent of control at 10^−7 M was more than 60% or the value of IC50 was more than 200 nM.)

## CN(C)c1nc(N[C@H]2CC[C@@H](NC(=O)Nc3cccc(F)c3)CC2)nc2c1CCCC2 [compound 1827]
[3]
  class: 3 (Class 3 The value of percent of control at 10^−7 M was more than 60% or the value of IC50 was more than 200 nM.)

## CN(C)c1nc(N[C@H]2CC[C@@H](NC(=O)Nc3ccc(Cl)cc3[N+](=O)[O-])CC2)nc2c1CCCC2 [compound 1886]
[3]
  class: 3 (Class 3 The value of percent of control at 10^−7 M was more than 60% or the value of IC50 was more than 200 nM.)

## COc1ccc(CNC(=S)N[C@H]2CC[C@@H](Nc3nc4c(c(N(C)C)n3)CCCC4)CC2)cc1OC [compound 2041]
[4]
  class: 3 (Class 3 The value of percent of control at 10^−7 M was more than 60% or the value of IC50 was more than 200 nM.)

## Cc1cc(C(=O)NC[C@H]2CC[C@@H](Nc3cc(N(C)C)c4ccccc4n3)CC2)c(C(F)(F)F)o1 [compound 197]
[4]
  class: 3 (Class 3 The value of percent of control at 10^−7 M was more than 60% or the value of IC50 was more than 200 nM.)

## COc1ccc(F)c(CNC[C@H]2CC[C@@H](Nc3nccc(N(C)C)n3)CC2)c1 [compound 1285]
[3]
  class: 3 (Class 3 The value of percent of control at 10^−7 M was more than 60% or the value of IC50 was more than 200 nM.)

## COc1ccc(C(=O)N[C@H]2CC[C@@H](Nc3nc4c(c(N(C)C)n3)CCCC4)CC2)cc1OCc1ccccc1 [compound 1026]
[1]
  class: 1 (Class 1: The value of percent of control at 10^−7 M was less than 40% or the value of IC50 was less than 50 nM.)

## COc1cccc(C(=O)N[C@H]2CC[C@@H](Nc3nc(C)cc(N(C)C)n3)CC2)c1 [compound 2984, N-(cis-4-{[4-(dimethylamino)-6-methylpyrimidin-2-yl]amino}cyclohexyl)-3-methoxybenzamide]
[5]
  class: 1 (Class 1: The value of percent of control at 10^−7 M was less than 40% or the value of IC50 was less than 50 nM.)

## Cc1cc(CNC[C@H]2CC[C@@H](Nc3cc(N(C)C)c4ccccc4n3)CC2)cc(C)c1O [compound 1140]
[1]
  class: 3 (Class 3 The value of percent of control at 10^−7 M was more than 60% or the value of IC50 was more than 200 nM.)

## CN(C)c1cc(N[C@H]2CC[C@@H](NC(=O)c3ccc(SC(F)(F)F)cc3)CC2)nc2ccccc12 [compound 131]
[4]
  class: 3 (Class 3 The value of percent of control at 10^−7 M was more than 60% or the value of IC50 was more than 200 nM.)

## COc1ccc(C(=O)N[C@H]2CC[C@@H](Nc3nc(C)c(C)c(N(C)C)n3)CC2)c(OC)n1 [compound 2832, N-(cis-4-{[4-(dimethylamino)-5,6-dimethylpyrimidin-2-yl]amino}cyclohexyl)-2,6-dimethoxynicotinamide]
[5]
  class: 1 (Class 1: The value of percent of control at 10^−7 M was less than 40% or the value of IC50 was less than 50 nM.)

## CN(C)c1cc(N[C@H]2CC[C@@H](NC(=O)NCc3ccccc3Cl)CC2)nc2ccccc12 [compound 2105]
[3]
  class: 2 (Class 2: The value of percent of control at 10^−7 M was from 40% to 60% or the value of IC′50 was from 50 nM to 200 nM.)

## CCc1ccccc1NC(=S)N[C@H]1CC[C@@H](Nc2cc(N(C)C)c3ccccc3n2)CC1 [compound 2178]
[3]
  class: 3 (Class 3 The value of percent of control at 10^−7 M was more than 60% or the value of IC50 was more than 200 nM.)

## Cc1cc(CN[C@H]2CC[C@@H](Nc3nccc(N(C)C)n3)CC2)c(C)n1-c1ccccc1 [compound 1230]
[3]
  class: 3 (Class 3 The value of percent of control at 10^−7 M was more than 60% or the value of IC50 was more than 200 nM.)

## CN(C)c1ccnc(N[C@H]2CC[C@@H](CNC(=O)c3ccc(F)c(Cl)c3F)CC2)n1 [compound 407]
[3]
  class: 3 (Class 3 The value of percent of control at 10^−7 M was more than 60% or the value of IC50 was more than 200 nM.)

## CN(C)c1cccc(C(=O)N[C@H]2CC[C@@H](Nc3nccc(N(C)C)n3)CC2)c1 [compound 844]
[3]
  class: 2 (Class 2: The value of percent of control at 10^−7 M was from 40% to 60% or the value of IC′50 was from 50 nM to 200 nM.)

## C[C@@H](NC(=O)c1ccccc1C(=O)N[C@H]1CC[C@@H](Nc2nccc(N(C)C)n2)CC1)c1cccc2ccccc12 [compound 877, N-(cis-4-{[4-(dimethylamino)pyrimidin-2-yl]amino}cyclohexyl)-N′-[(1R)-1-(1-naphthyl)ethyl]phthalamide]
[3]
  class: 2 (Class 2: The value of percent of control at 10^−7 M was from 40% to 60% or the value of IC′50 was from 50 nM to 200 nM.)

## COc1ccc(Oc2ccc([N+](=O)[O-])cc2C(=O)N[C@H]2CC[C@@H](Nc3nc4c(c(N(C)C)n3)CCCC4)CC2)cc1 [compound 544]
[2]
  class: 1 (Class 1: The value of percent of control at 10^−7 M was less than 40% or the value of IC50 was less than 50 nM.)

## CN(C)c1nc(N[C@H]2CC[C@@H](CNC(=O)OCCOCc3ccccc3)CC2)nc2c1CCCC2 [compound 1599]
[6]
  class: 3 (Class 3 The value of percent of control at 10^−7 M was more than 60% or the value of IC50 was more than 200 nM.)

## CN(C)c1cc(N[C@H]2CC[C@@H](CNCc3cccc(C#N)c3)CC2)nc2ccccc12 [compound 1163]
[3]
  class: 3 (Class 3 The value of percent of control at 10^−7 M was more than 60% or the value of IC50 was more than 200 nM.)

## C=CCOc1ccccc1CNC[C@H]1CC[C@@H](Nc2cc(N(C)C)c3ccccc3n2)CC1 [compound 1177]
[3]
  class: 2 (Class 2: The value of percent of control at 10^−7 M was from 40% to 60% or the value of IC′50 was from 50 nM to 200 nM.)

## CN(C)c1ccnc(N[C@H]2CC[C@@H](CNC(=O)OCC(C)(C)C)CC2)n1 [compound 1640]
[6]
  class: 3 (Class 3 The value of percent of control at 10^−7 M was more than 60% or the value of IC50 was more than 200 nM.)

## COc1cc(C)c(CNC[C@H]2CC[C@@H](Nc3cc(N(C)C)c4ccccc4n3)CC2)cc1C [compound 1195]
[3]
  class: 3 (Class 3 The value of percent of control at 10^−7 M was more than 60% or the value of IC50 was more than 200 nM.)

## CN(C)c1ccnc(N[C@H]2CC[C@@H](NC(=O)c3cc(C(F)(F)F)ccc3F)CC2)n1 [compound 283]
[3]
  class: 3 (Class 3 The value of percent of control at 10^−7 M was more than 60% or the value of IC50 was more than 200 nM.)

## CCc1cccc(C(C)C)c1NC(=O)N[C@H]1CC[C@@H](Nc2nc3c(c(N(C)C)n2)CCCC3)CC1 [compound 1676]
[6]
  class: 2 (Class 2: The value of percent of control at 10^−7 M was from 40% to 60% or the value of IC′50 was from 50 nM to 200 nM.)

## Cc1cccc(NC(=S)N[C@H]2CC[C@@H](Nc3nc4c(c(N(C)C)n3)CCCC4)CC2)c1 [compound 1947]
[4]
  class: 3 (Class 3 The value of percent of control at 10^−7 M was more than 60% or the value of IC50 was more than 200 nM.)

## Cc1cc(C)c2occ(CN[C@H]3CC[C@@H](Nc4cc(N(C)C)c5ccccc5n4)CC3)c(=O)c2c1 [compound 1108]
[1]
  class: 3 (Class 3 The value of percent of control at 10^−7 M was more than 60% or the value of IC50 was more than 200 nM.)

## Cc1cc(N(C)C)nc(N[C@H]2CC[C@@H](NC(=O)Cc3cc(C(F)(F)F)cc(C(F)(F)F)c3)CC2)n1 [compound 2950, 2-[3,5-bis(trifluoromethyl)phenyl]-N-(cis-4-{[4-(dimethylamino)-6-methylpyrimidin-2-yl]amino}cyclohexyl)acetamide]
[5]
  class: 2 (Class 2: The value of percent of control at 10^−7 M was from 40% to 60% or the value of IC′50 was from 50 nM to 200 nM.)

## CN(C)c1nc(N[C@H]2CC[C@@H](NC(=S)Nc3ccccc3C#N)CC2)nc2c1CCCC2 [compound 2036]
[4]
  class: 3 (Class 3 The value of percent of control at 10^−7 M was more than 60% or the value of IC50 was more than 200 nM.)

## CN(C)c1nc(N[C@H]2CC[C@@H](NC(=O)CCC(=O)c3ccc(F)cc3)CC2)nc2c1CCCC2 [compound 983]
[1]
  class: 2 (Class 2: The value of percent of control at 10^−7 M was from 40% to 60% or the value of IC′50 was from 50 nM to 200 nM.)

## CCOc1ccc(Br)cc1CNC[C@H]1CC[C@@H](Nc2nc3c(c(N(C)C)n2)CCCC3)CC1 [compound 1408]
[3]
  class: 3 (Class 3 The value of percent of control at 10^−7 M was more than 60% or the value of IC50 was more than 200 nM.)

## COc1cc(COC(=O)NC2CCC(Nc3nc4c(c(N(C)C)n3)CCCC4)CC2)c([N+](=O)[O-])cc1OC (stereo not shown) [compound 1581, [4-(4-Dimethylamino-5,6,7,8-tetrahydro-quinazolin-2-ylamino)-cyclohexy]-carbamic acid 4,5-dimethoxy-2-nitro-benzyl ester]
[6]
  class: 2 (Class 2: The value of percent of control at 10^−7 M was from 40% to 60% or the value of IC′50 was from 50 nM to 200 nM.)

## Cc1cccc(NC(=S)N[C@H]2CC[C@@H](Nc3cc(N(C)C)c4ccccc4n3)CC2)c1C [compound 2299]
MCH receptor activity class 1-3 (percent of control at 10^-7 M or IC50)
  class: 3 (Class 3 The value of percent of control at 10^−7 M was more than 60% or the value of IC50 was more than 200 nM.)
